The subject of assay [1] is Phakopsora pachyrhizi containing the amino acid substitution F129L in the mitochondrial cytochrome b protein. Kind of assay: Use Example 2: protective control of soybean rust on soybeans (PHAKPA P6). Particulars: inoculated six days after spraying, % diseased leaf area. It counts as in vivo. In a few lines: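 Compound in acetone and/or DMSO with Wettol (99:1), diluted with water, was sprayed to run-off on potted soybean seedlings. After six days at 23–27°C and 60–80% RH, plants were inoculated with a Qo-resistant F129L strain and held 24 h at about 95% RH. Percent diseased leaf area was scored visually after up to 14 days.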

The test system of assay [2] is Puccinia recondita. Kind of assay: Use Example 3: curative control of brown rust on wheat (PUCCRT K4). It counts as in vivo. The conditions noted are these: % diseased leaf area. The method, boiled down: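 Wheat seedlings inoculated with Puccinia recondita spores, held 24 h at 95–99% RH, 20–24° C in dark, then 3 days in greenhouse before spraying to run-off (curative). Compound in acetone/DMSO–Wettol–water. After 5–7 further days at 20–24° C, 65–70% RH, % diseased leaf area scored visually.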

Assay [3] concerns Alternaria solani (ALTESO). In words: Use example 5: microtest, growth of Alternaria solani (ALTESO). The assay is classed as cell-based. Particulars: 0.125 ppm; relative growth vs compound-free control (100%), 7 days after inoculation. On the procedure:
(§1) The active compounds were formulated separately as a stock solution having a concentration of 10000 ppm in dimethyl sulfoxide. The stock solutions were mixed according to the ratio, pipetted onto a micro titer plate (MTP) and diluted with water to the stated concentrations. A spore suspension of one of the following fungal plant pathogens in aqueous bio malt solution • was then added for the respective use example: • Use example 5: Alternaria solani (ALTESO) • Use example 6: Botrytis cinerea (BOTRCI) • Use example 7: Cercospora sojina (CERCSO) • Use example 8: Colletotrichum orbiculare (COLLLA) • Use example 9: Leptosphaeria nodorum (LEPTNO) • Use example 10: Drechslera teres (PYRNTE) containing the amino acid substitution F129L in the mitochondrial cytochrome b protein conferring resistance to Qo inhibitors • Use example 11: Sclerotinia sclerotiorum (SCLESC), solute with ultrasonic from a filter membrane
(§2) The plates were placed in a water vapor-saturated chamber at a temperature of 18° C. Using an absorption photometer, the MTPs were measured at 405 nm 7 days after the inoculation.
(§3) The measured parameters were compared to the growth of the active compound-free control variant (100%) and the fungus-free blank value to determine the relative growth in % of the pathogens in the respective active compounds.

For assay [4], the system named is Phakopsora pachyrhizi containing the amino acid substitution F129L in the mitochondrial cytochrome b protein. Kind of assay: Use Example 1: protective control of soybean rust on soybeans (PHAKPA P2). It counts as in vivo. The conditions noted are these: inoculated 2 days after spraying, % diseased leaf area. In a few lines: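 Soybean seedling leaves sprayed to run-off with compound in acetone/DMSO–Wettol–water at the stated concentration, kept 2 days at 23-27° C, then inoculated with Qo-inhibitor-resistant F129L P. pachyrhizi. After 24 h at ~95% RH, 20-24° C, and up to 14 days in greenhouse, % diseased leaf area scored visually.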

For assay [5], the system named is Sclerotinia sclerotiorum (SCLESC). In words: Use example 11: microtest, growth of Sclerotinia sclerotiorum (SCLESC). It counts as cell-based. Particulars: 8 ppm; relative growth vs compound-free control (100%), 7 days after inoculation. On the procedure: as §1, §2, §3
Assay [6] relates to Puccinia recondita. In words: Use Example 4: preventative control of brown rust on wheat (PUCCRT P7). The assay is classed as in vivo. Particulars: inoculated seven days after spraying, % diseased leaf area. The method, boiled down:
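First two leaves of potted wheat seedlings sprayed to run-off with compound in acetone/DMSO–emulsifier–water, then inoculated with Puccinia recondita spores seven days later. Plants held 24 h dark at 95–99% RH and 20–24 °C, then 9–11 days in greenhouse; diseased leaf area (%) scored visually.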

In the case of `COC/C(=N\OCc1c(Cl)cccc1/C(=N\OC)C(=O)OC)c1ccc(F)cc1` [compound 1, Methyl (2E)-2-[3-chloro-2-[[(Z)-[1-(4-fluorophenyl)-2-methoxy-ethylidene]amino]oxymethyl]phenyl]-2-methoxyimino-acetate], the “% PHAKPA (F129L) Disease level P6 at 4 ppm” value in assay [1] (4 ppm) is 57%. In addition, the “% PHAKPA (F129L) Disease level P6 at 16 ppm” value in assay [1] (16 ppm) turned out to be 11%. In addition, the “% PUCCRT Disease level K4 at 4 ppm” value with Puccinia recondita [2] (4 ppm) worked out at 87%. The “% PUCCRT Disease level K4 at 16 ppm” value in the assay with Puccinia recondita [2] (16 ppm) was determined as 77%. In assay [3], the “Growth (%) ALTESO Use ex. 5” value was determined as 73%. Besides, the “% PHAKPA (F129L) Disease level P2 at 4 ppm” value in assay [4] (4 ppm) was determined as 20%. In addition, the “% PHAKPA (F129L) Disease level P2 at 16 ppm” value in assay [4] (16 ppm) came to 1%. Also, the “Growth (%) SCLESC Use ex. 11” value in assay [5] amounted to 72%. The “% PUCCRT Disease level P7 at 4 ppm” value with Puccinia recondita [6] (4 ppm) came to 53%. For the same compound, in the assay with Puccinia recondita [6] (16 ppm), the “% PUCCRT Disease level P7 at 16 ppm” value worked out at 23%.

The values are drawn from patent publication US20260165323A1, “USE OF STROBILURIN TYPE COMPOUNDS FOR COMBATING PHYTOPATHOGENIC FUNGI CONTAINING AN AMINO ACID SUBSTITUTION F129L IN THE MITOCHONDRIAL CYTOCHROME B PROTEIN CONFERRING RESISTANCE TO QO […]” (priority 2022, published 2026).
